# Entries after “also recorded” stand apart in the source; their conditions may differ. Ends that are not written are not given here.
# Assays:
# [1] = pH stability assay by Circular Dichroism
# Experimental: The stability of the Bac-amp1 and IDR-1018 peptides was assessed by studying their secondary structure with Circular Dichroism (CD) spectroscopy in the presence of Sodium Dodecyl Sulfate (SDS) micelles at a concentration of 10 mM to mimic the condition of the cell membrane, in different temperature and pH conditions.
# CD assays were performed with a Jasco J-810 Spectropolarimeter equipped with a thermostatted cuvette compartment. The samples were loaded into a 0.1 cm-long quartz cuvette (Hellma Analytics) and the spectrum was analyzed in the 190 nm to 250 nm range at temperatures of 15° C. or 90° C. for each sample.
# The CD spectra were acquired at a scanning speed of 20 nm/min, and the recorded results represent an average of 5 scans. The spectra at 90° C. were collected at time zero and after 2 hours to evaluate the thermostability of peptides at high temperatures.
# The average ellipticity of the residues ([θ], degrees cm^2 dmol^−1) was calculated using the following equation: [θ]=100θ/cn1 where θ represents ellipticity (m degrees), c is the concentration (mM) of the peptide, n is the number of residues. The secondary structure was calculated through the DICHROWEB site (Whitmore L and Wallace B A, 2004, Nucleic Acids Research 32: 668-673, Whitmore L and Wallace B A, 2008, Biopolymers 89:392-400, Lobley et al, 2002, Bioinformatics 18:211-212), using three different algorithms (SELCON3, CONTIN-LLe CDSSTR) (Sreerema N and Woody R W, 1993, Analytical Biochemistry 287:252-260; Sreerema N et al, 1999, Protein Science 8:370-380, Provencher S W and Glockner J, 1981, Biochemistry 20:33-37, Van Stokkum I H M et al, 1990, Analytical Biochemistry 191:110-118, Compton L A and Johnson W C, 1986, Analytical Biochemistry 155:155-167, Manavalan P and Johnson W C, 1987, Analytical Biochemistry 167:76-85, Sreerama N et al, 2000, Protein Science 8:370-380) and selecting as a comparison data set the SMP180 protein, which includes a high number of soluble and membrane proteins (Abdul-Gader A et al, 2011, Bioinformatics 27:1630-1636). […]
# [2] = test system: L. monocytogenes biofilms; test: Antibiofilm activity assay with SEM on steel discs; format: cell-based, Listeria monocytogenes; conditions: 50 μM
# Experimental: The activity of the Bac-amp1 and IDR-1018 peptides on L. monocytogenes biofilms was further investigated by scanning electron microscopy (SEM).
# Specifically, in this example the three-dimensional biofilm architecture, developed on stainless steel materials, was studied.
# The Aisi 304 stainless steel discs with a diameter of 14.5 mm (SS) were treated with 600 μl of standardized inoculum in the presence or absence of each of the peptides at the concentration of 25 μM or 50 μM, or with control medium, according to the same method of Example 4a and repeatedly washed in sterile PBS to remove planktonic cells and fixated on a new plate with 1 ml of Karnovsky fixative containing 5% glutaraldehyde, 4% paraformaldehyde in buffer 0.064 M (Electronic Microscopy Science, Hatfield, Pa., USA) for 1 hour at 4° C. Thereafter, the samples were washed in 0.1 M cacodylate sodium buffer at pH 7.4 (Electronic Microscopy Science, Hatfield, Pa., USA) and the fixated cells were dehydrated in a series of aqueous acetone solutions at different concentrations, in particular 25%, 50%, 75% and 100%. The samples were glued onto polished aluminium sample holders (Electronic Microscopy Science, Hatfield, Pa., USA) and uniformly vacuum coated with a 20-nm thick gold layer with the K950 high-vacuum Turbo Evaporator and a K 350 coupling (Emitech Ltd, Ashford, UK). The coated samples were examined at the JEOL 6700 FEG Field Emission Electron Microscope (SEM Jeol, City and State) with magnification from 1000× to 5000×. For each sample, a number of images (5-10), acquired as electronic images were randomly analyzed.
# [3] = Thermostability assay by Circular Dichroism; format: physicochemical; conditions: 15 to 90° C., 2 hours at 90° C., pH 6, 10 mM SDS
# Experimental: The prepared samples were incubated for two hours at 15° C. or 90° C. A CD analysis was performed on samples stored at 15° C. and before and after incubation for two hours at 90° C.
substance,measurement,setting,value
"VRLIVAVRIWRR-NH2 [IDR-1018, VRLIVAVRIWRR]",pH range with increase in the percentage of unordered random coil structure,"[1]; 10 mM SDS, 24 hours at 37° C.",8.0-11.0
same,conformational stability at different pH,[1]; pH 1.0 to 11.0,higher conformational stability at pH 1.0; also recorded: greater conformational stability at pH 1.0
same,"cells on steel discs by SEM, 5000× image",[2],a greater number of cells
same,thermostability (CD spectra),[3],high thermostability

# — patent US11478528B2, “Antimicrobial peptides against Listeria monocytogenes” (MATERIAS S.r.l., priority 2017, dated 2022)
